Molecular target: IDH1 R132H (Homo sapiens, UniProt O75874, R132H)
Assay: High Throughput Screening (HTS) for IDH1 R132H inhibitors (resazurin/NADPH fluorescence assay)
Type: biochemical
Conditions: IDH1m
Protocol: A compound described herein may be an inhibitor of IDH1m. […] B refers to an inhibitor of IDH1m with an IC50 between 1 μM and 50 μM. C refers to an inhibitor of IDH1m with an IC50 greater than 50 μM. D refers to a compound wherein an IC50 is not available.
Assays were conducted in a volume of 76 μl assay buffer (150 mM NaCl, 10 mM MgCl2, 20 mM Tris pH 7.5, 0.03% bovine serum albumin) as follows in a standard 384-well plate: To 25 ul of substrate mix (8 uM NADPH, 2 mM aKG), 1 μl of test compound was added in DMSO. The plate was centrifuged briefly, and then 25 μl of enzyme mix was added (0.2 μg/ml ICDH1 R132H) followed by a brief centrifugation and shake at 100 RPM. The reaction was incubated for 50 minutes at room temperature, then 25 μl of detection mix (30 μM resazurin, […]) was added and the mixture further incubated for 5 minutes at room temperature. The conversion of resazurin to resorufine was detected by fluorescent spectroscopy at Ex544 Em590 c/o 590.

[1] = assay similar to Example 1, class symbols

IDH1 R132H, sequence (O75874 whole entry R132H): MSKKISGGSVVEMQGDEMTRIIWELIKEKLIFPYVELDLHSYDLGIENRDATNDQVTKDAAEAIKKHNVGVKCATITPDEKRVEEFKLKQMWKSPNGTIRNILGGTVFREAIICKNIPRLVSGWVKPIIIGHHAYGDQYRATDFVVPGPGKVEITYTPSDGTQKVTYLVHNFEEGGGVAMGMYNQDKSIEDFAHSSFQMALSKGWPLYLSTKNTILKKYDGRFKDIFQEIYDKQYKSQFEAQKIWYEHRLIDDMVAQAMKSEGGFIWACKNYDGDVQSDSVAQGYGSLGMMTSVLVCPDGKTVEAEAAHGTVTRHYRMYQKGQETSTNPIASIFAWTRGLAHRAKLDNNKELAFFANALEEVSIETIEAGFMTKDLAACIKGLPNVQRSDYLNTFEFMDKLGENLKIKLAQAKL

SMILES	IC50 [1] [µM]	IC50 (number printed in Table 1 instead of a class symbol) [µM]
CCCCc1ccc(OC(=O)Nc2ccc(C)c(C(=O)N3CCN(c4ccccc4OC)CC3)c2)cc1	> 50	–
CCCCc1ccc(NS(=O)(=O)c2ccc(C)c(C(=O)N3CCN(c4cccc(C(F)(F)F)c4)CC3)c2)cc1	1 to 50	–
CCCCc1ccc(NS(=O)(=O)c2ccc(C)c(C(=O)N3CCN(C(=O)c4ccccc4)CC3)c2)cc1	1 to 50	–
CCCCc1ccc(NS(=O)(=O)c2ccc(C)c(C(=O)N3CCN(C(=O)NCC(C)C)CC3)c2)cc1	1 to 50	–
CCCCc1ccc(NS(=O)(=O)c2ccc(C)c(C(=O)N3CCN(c4ccccc4)CC3)c2)cc1	1 to 50	–
Cc1ccc(S(=O)(=O)Nc2ccc(Cl)cc2)cc1C(=O)N1CCN(c2ccccn2)CC1	> 50	–
Cc1cc(F)ccc1NS(=O)(=O)c1cccc(C(=O)N2CCN(c3ccccn3)CC2)c1	> 50	–
CCCCc1ccc(NS(=O)(=O)c2cccc(C(=O)N3CCN(c4ncccn4)CC3)c2)cc1	1 to 50	–
CCCCc1ccc(NS(=O)(=O)c2ccc(N3CCCC3)c(C(=O)N3CCN(c4ccccc4OC)CC3)c2)cc1	1 to 50	–
Cc1ccc(S(=O)(=O)Nc2ccc(Cl)cc2)cc1C(=O)N1CCN(c2ccccc2)CC1	> 50	–
CCCCc1ccc(NS(=O)(=O)c2ccc(C)c(C(=O)N3CCN(C(=O)OCC)CC3)c2)cc1	1 to 50	–
COc1ccccc1NS(=O)(=O)c1cccc(C(=O)N2CCN(c3ccccc3)CC2)c1	> 50	–
Cc1ccc(NS(=O)(=O)c2cccc(C(=O)N3CCN(c4ccccc4)CC3)c2)cc1	> 50	–
COc1ccccc1N1CCN(C(=O)c2cccc(S(=O)(=O)Nc3ccccc3)c2)CC1	> 50	–
CCCCc1ccc(NS(=O)(=O)c2ccc(C)c(C(=O)N3CCN(C(=O)OCC(C)C)CC3)c2)cc1	1 to 50	–
COc1ccccc1N1CCN(C(=O)c2cccc(S(=O)(=O)Nc3ccc(C(C)(C)C)cc3)c2)CC1	1 to 50	–
COc1ccccc1N1CCN(C(=O)c2cccc(NS(=O)(=O)c3cccc4cccnc34)c2)CC1	> 50	–
CCCCc1ccc(NS(=O)(=O)c2cccc(C(=O)N3CCN(c4ccncc4)CC3)c2)cc1	1 to 50	–
CCCc1ccccc1NS(=O)(=O)c1cccc(C(=O)N2CCN(c3ccccc3)CC2)c1	1 to 50	–
CCCc1ccc(NS(=O)(=O)c2cccc(C(=O)N3CCN(c4ccccc4)CC3)c2)cc1	1 to 50	–
CCCCc1ccc(NS(=O)(=O)c2ccc(C)c(C(=O)N3CCN(Cc4ccccc4CC)CC3)c2)cc1	1 to 50	–
CCCCc1ccc(NS(=O)(=O)c2ccc(C)c(C(=O)N3CCN(Cc4cccc(C)c4)CC3)c2)cc1	1 to 50	–

SMILES	IC50 [1] [µM]	IC50 (number printed in Table 1 instead of a class symbol) [µM]
CCCCc1ccc(NS(=O)(=O)c2cccc(C(=O)N3CCN(c4ncc(C)cc4Cl)CC3)c2)cc1	1 to 50	–
CCCCc1ccc(NS(=O)(=O)c2ccc(C)c(C(=O)N3CCN(c4ccccc4OCc4ccccc4)CC3)c2)cc1	1 to 50	–
COc1ccccc1N1CCCN(C(=O)c2cccc(S(=O)(=O)Nc3ccc(C)cc3)c2)CC1	> 50	–
Cc1cc(F)ccc1NS(=O)(=O)c1cccc(C(=O)N2CCN(c3ccccc3)CC2)c1	> 50	–
COc1ccc(NS(=O)(=O)c2cccc(C(=O)N3CCN(c4ccccc4)CC3)c2)cc1	> 50	–
CCCCc1ccc(NS(=O)(=O)c2ccc(C)c(C(=O)N3CCN(C(=O)OCc4ccccc4)CC3)c2)cc1	1 to 50	–
CCCCc1ccc(NS(=O)(=O)c2ccc(C)c(C(=O)N3CCN(Cc4cc(C)c(C)cc4C)CC3)c2)cc1	1 to 50	–
O=C(c1cccc(S(=O)(=O)Nc2ccccc2F)c1)N1CCN(c2ccccc2)CC1	> 50	–
CCCCc1ccc(NS(=O)(=O)c2ccc(C)c(C(=O)N3CCN(c4cccc(Cl)c4)CC3)c2)cc1	1 to 50	–
CCCCc1ccc(NS(=O)(=O)c2ccc(C)c(C(=O)N3CCN(c4ccccc4OC)CC3)c2)c(N(C)C)c1	1 to 50	–
CCCCc1ccc(NS(=O)(=O)c2ccc(N3CCOCC3)c(C(=O)N3CCN(c4ccccc4OC)CC3)c2)cc1	1 to 50	–
CCCCc1ccc(NS(=O)(=O)c2ccc(C)c(C(=O)N3CCN(c4ccccc4OCCc4ccccc4)CC3)c2)cc1	1 to 50	–
CCCCc1ccc(NS(=O)(=O)c2ccc(C)c(C(=O)N3CCN(c4ccccn4)CC3)c2)cc1	1 to 50	–
CCCCc1ccc(NS(=O)(=O)c2cc3c(c(C(=O)N4CCN(c5ccccc5OC)CC4)c2)OCCN3)cc1	1 to 50	–
COc1ccccc1N1CCN(C(=O)c2cccc(S(=O)(=O)Nc3ccccc3F)c2)CC1	> 50	–
CCCCc1ccc(NS(=O)(=O)c2cccc(C(=O)N3CCN(c4ccccc4OC)CC3)c2)c(C(=O)O)c1	1 to 50	–
Cc1ccc(S(=O)(=O)Nc2ccccc2F)cc1C(=O)N1CCN(c2ccccn2)CC1	> 50	–
COc1ccccc1NS(=O)(=O)c1cccc(C(=O)N2CCCN(c3ccccc3OC)CC2)c1	> 50	–
CCCCc1ccc(NS(=O)(=O)c2ccc(C)c(C(=O)N3CCN(c4ccncc4)CC3)c2)cc1	1 to 50	–
CCCCc1ccc(NS(=O)(=O)c2ccc(C)c(C(=O)N3CCN(C(=O)c4cscn4)CC3)c2)cc1	1 to 50	–
CCCCc1ccc(NS(=O)(=O)c2ccc(C)c(C(=O)N3CCN(c4c(Cl)cccc4Cl)CC3)c2)cc1	1 to 50	–
COc1ccccc1NS(=O)(=O)c1cccc(C(=O)N2CCN(c3ccccc3OC)CC2)c1	> 50	–

Results, then the molecule that gave them:

IC50 [1] [µM]	IC50 (number printed in Table 1 instead of a class symbol) [µM]	SMILES
> 50	–	COc1ccc(NS(=O)(=O)c2cccc(C(=O)N3CCN(c4ccccc4OC)CC3)c2)cc1
1 to 50	–	CCCCc1ccc(NS(=O)(=O)c2ccc(C)c(C(=O)N3CCN(c4ccccc4OCC(C)C)CC3)c2)cc1
1 to 50	–	COc1ccccc1N1CCN(C(=O)c2cc(S(=O)(=O)Nc3ccc(C(C)(C)C)cc3)ccc2C)CC1
1 to 50	–	COCCOCOc1ccc(NS(=O)(=O)c2ccc(C)c(C(=O)N3CCN(c4ccccc4C)CC3)c2)cc1
1 to 50	–	CCCCc1ccc(NS(=O)(=O)c2ccc(C)c(C(=O)N3CCCN(c4ccccc4C)CC3)c2)cc1
< 1	–	CCCCc1ccc(NS(=O)(=O)c2ccc(C)c(C(=O)N3CCN(c4ccccc4C)CC3)c2)cc1
1 to 50	–	CCCCc1ccc(NS(=O)(=O)c2ccc(C)c(C(=O)N3CCN(c4ccccc4C(F)(F)F)CC3)c2)cc1
1 to 50	–	CCCCc1ccc(NS(=O)(=O)c2ccc(C)c(C(=O)N3CCN(c4ccccc4OCC4CC4)CC3)c2)cc1
1 to 50	–	CCCCOc1ccc(NS(=O)(=O)c2ccc(C)c(C(=O)N3CCN(c4ccccc4OC)CC3)c2)cc1
1 to 50	–	CCCCc1ccc(NS(=O)(=O)c2ccc(C)c(C(=O)N3CCN(c4ccccc4F)CC3)c2)cc1
–	51	COc1ccc(NS(=O)(=O)c2ccc(C)c(C(=O)N3CCN(c4ccccc4)CC3)c2)cc1
1 to 50	–	CCCCc1ccc(NS(=O)(=O)c2ccc(F)c(C(=O)N3CCN(c4ccccc4OC)CC3)c2)cc1
1 to 50	–	COc1ccccc1N1CCN(C(=O)c2cc(S(=O)(=O)Nc3ccc(OCc4nnco4)cc3)ccc2C)CC1
1 to 50	–	CCCCc1ccc(NS(=O)(=O)c2ccc(C)c(C(=O)N3CCN(c4ccc(OC)cc4O)CC3)c2)cc1
1 to 50	–	C=Cc1ccc(S(=O)(=O)Nc2ccc(CCCC)cc2)cc1C(=O)N1CCN(c2ccccc2OC)CC1
1 to 50	–	CCCCc1ccc(NS(=O)(=O)c2ccc(C)c(C(=O)N3CCN(c4ccccc4OCCC)CC3)c2)cc1
1 to 50	–	COc1ccc(NS(=O)(=O)c2ccc(C)c(C(=O)N3CCN(c4ccccc4OC)CC3)c2)cc1
1 to 50	–	C#CCc1ccc(S(=O)(=O)Nc2ccc(CCCC)cc2)cc1C(=O)N1CCN(c2ccccc2OC)CC1

IC50 [1] [µM]	IC50 (number printed in Table 1 instead of a class symbol) [µM]	SMILES
> 50	–	COc1ccccc1N1CCN(C(=O)c2cc(S(=O)(=O)Nc3ccc(CCN4CCCC4)cc3)ccc2C)CC1
> 50	–	CCOc1ccc(NS(=O)(=O)c2ccc(C)c(C(=O)N3CCN(c4ccccn4)CC3)c2)cc1
< 1	–	CCCCc1ccc(NS(=O)(=O)c2ccc(C)c(C(=O)N3CCN(c4ccccc4Cl)CC3)c2)cc1
1 to 50	–	CCOC(=O)C(C)Oc1ccc(NS(=O)(=O)c2ccc(C)c(C(=O)N3CCN(c4ccccc4OC)CC3)c2)cc1 (centres unmarked)
1 to 50	–	CCCCc1ccc(NS(=O)(=O)c2cccc(C(=O)N3CCN(c4ccccc4OC)CC3)c2)cc1
1 to 50	–	CCCCc1ccc(NS(=O)(=O)c2ccc(C)c(C(=O)N3CCN(c4ccccc4OCC)CC3)c2)cc1
1 to 50	–	CCCCOc1ccc(NS(=O)(=O)c2ccc(C)c(C(=O)N3CCN(c4ccccc4OC)CC3)c2)c(C)c1C
1 to 50	–	CCCc1ccc(NS(=O)(=O)c2ccc(C)c(C(=O)N3CCN(c4ccccc4OC)CC3)c2)cc1
1 to 50	–	COc1ccccc1N1CCN(C(=O)c2cc(S(=O)(=O)Nc3ccc(OC(C)C)cc3)ccc2C)CC1
1 to 50	–	CCc1ccc(NS(=O)(=O)c2ccc(C)c(C(=O)N3CCN(c4ccccc4OC)CC3)c2)cc1
< 1	–	CCCCc1ccc(NS(=O)(=O)c2ccc(C)c(C(=O)N3CCN(c4ccccc4OC)CC3)c2)cc1
1 to 50	–	CCCCc1ccc(NS(=O)(=O)c2ccc(C)c(C(=O)N3CCN(c4ccccc4OC(C)C)CC3)c2)cc1
1 to 50	–	COCCOCOc1ccc(NS(=O)(=O)c2ccc(C)c(C(=O)N3CCN(c4ccccc4OC)CC3)c2)cc1
1 to 50	–	COc1ccccc1N1CCN(C(=O)c2cc(S(=O)(=O)Nc3cccc4cccnc34)ccc2C)CC1
> 50	–	COc1ccc(NS(=O)(=O)c2ccc(C)c(C(=O)N3CCN(c4ccccn4)CC3)c2)cc1
1 to 50	–	COc1ccccc1N1CCN(C(=O)c2cc(S(=O)(=O)Nc3cccc4cc[nH]c34)ccc2C)CC1
1 to 50	–	Cc1ccc(S(=O)(=O)Nc2ccc(C(C)C)cc2)cc1C(=O)N1CCN(c2ccccc2)CC1
1 to 50	–	COc1ccccc1N1CCN(C(=O)c2cc(S(=O)(=O)Nc3ccc(C)c4cccnc34)ccc2C)CC1

From patent US20130035329A1, “THERAPEUTICALLY ACTIVE COMPOSITIONS AND THEIR METHODS OF USE” (priority 2009, published 2013)
